Results taken from PubChem BioAssay AID248 (DTP/NCI, 2004).
Several values for one entry are separate records, joined by “and”; a condition that tells them apart may be missing. Equal values may be shown once. Inconclusive results and toxic doses are left out. No stated cut-off is given here; in the data, active means T/C of 150% or more; inactive means T/C below 125%.

Tested on: L1210 leukemia ip in BDF1 mice, survival T/C
Test: NCI In Vivo Anticancer Drug Screen. Data for tumor model L1210 Leukemia (intraperitoneal) in B6D2F1 (BDF1) mice
Conditions: endpoint: mean survival time, higher = longer survival
Outline: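 Value reflects the ratio of survival in compound-treated mice to survival in vehicle-treated controls, with both groups carrying the same transplanted tumor.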

[1] = dose: 100.0 mg/kg/injection, schedule: Q01DX009 (ip), vehicle: saline with Tween-80
[2] = dose: 200.0 mg/kg/injection, schedule: Q01DX009 (ip), vehicle: saline with Tween-80
[3] = dose: 100.0 mg/kg/injection, schedule: Q01DX009 (ip), vehicle: Klucel (hydroxypropylcellulose) (HPC)
[4] = dose: 100.0 mg/kg/injection, schedule: Q04DX003 (ip), vehicle: Klucel (hydroxypropylcellulose) (HPC)
[5] = dose: 200.0 mg/kg/injection, schedule: Q01DX009 (ip), vehicle: Klucel (hydroxypropylcellulose) (HPC)
[6] = dose: 200.0 mg/kg/injection, schedule: Q04DX003 (ip), vehicle: Klucel (hydroxypropylcellulose) (HPC)
[7] = dose: 400.0 mg/kg/injection, schedule: Q04DX003 (ip), vehicle: Klucel (hydroxypropylcellulose) (HPC)
[8] = dose: 100.0 mg/kg/injection, schedule: Q01DX009 (ip), vehicle: saline
[9] = dose: 100.0 mg/kg/injection, schedule: Q04DX002 (ip), vehicle: saline with Tween-80
[10] = dose: 200.0 mg/kg/injection, schedule: Q04DX002 (ip), vehicle: saline with Tween-80
[11] = dose: 400.0 mg/kg/injection, schedule: Q01DX009 (ip), vehicle: Klucel (hydroxypropylcellulose) (HPC)

Measured: T/C

Cc1cccc(C)c1NC(=O)OCCOc1ccc(Cl)cc1Cl
inactive: dose: 50.0 mg/kg/injection, schedule: Q01DX009 (ip), vehicle: saline with Tween-80 90 % of control | [1] 95 % of control | [2] 95 % of control

COc1ccc(Cl)cc1NC(=O)Nc1nccs1
inactive: [3] 98 % of control | [4] 101 % of control | [5] 92 % of control | [6] 97 % of control | [7] 95 % of control

O=C(COc1cccc(Cl)c1)Nc1cccc(S(=O)(=O)O)c1 (tested in a mixture with another compound)
inactive: dose: 100.0 mg/kg/injection, schedule: Q01DX001 (ip), vehicle: Klucel (hydroxypropylcellulose) (HPC) 100 % of control | dose: 200.0 mg/kg/injection, schedule: Q01DX001 (ip), vehicle: Klucel (hydroxypropylcellulose) (HPC) 99 % of control | dose: 400.0 mg/kg/injection, schedule: Q01DX001 (ip), vehicle: Klucel (hydroxypropylcellulose) (HPC) 87 % of control

C(COCC1CO1)OCC1CO1 (centres undefined)
inactive: dose: 6.25 mg/kg/injection, schedule: Q01DX009 (ip), vehicle: saline 115 % of control | dose: 12.5 mg/kg/injection, schedule: Q01DX009 (ip), vehicle: saline 110 % of control | dose: 25.0 mg/kg/injection, schedule: Q01DX009 (ip), vehicle: saline 110 % of control and 118 % of control | [8] 120 % of control | dose: 100.0 mg/kg/injection, schedule: Q04DX003 (ip), vehicle: saline 122 % of control | dose: 200.0 mg/kg/injection, schedule: Q01DX Z (ip), vehicle: saline 121 % of control | dose: 200.0 mg/kg/injection, schedule: Q04DX003 (ip), vehicle: saline 91 % of control | dose: 300.0 mg/kg/injection, schedule: Q01DX Z (ip), vehicle: saline 114 % of control | dose: 450.0 mg/kg/injection, schedule: Q01DX Z (ip), vehicle: saline 122 % of control

O=C(NCCCl)C(Cl)(Cl)Cl
inactive: [4] 98 % of control | [6] 97 % of control | [7] 106 % of control

C1=C(c2ccccc2)N(Cc2ccccc2)C(c2ccccc2)=CN1Cc1ccccc1
inactive: dose: 50.0 mg/kg/injection, schedule: Q04DX002 (ip), vehicle: saline with Tween-80 105 % of control | dose: 100.0 mg/kg/injection, schedule: Q04DX002 (ip), vehicle: Klucel (hydroxypropylcellulose) (HPC) 107 % of control | [9] 96 % of control | dose: 200.0 mg/kg/injection, schedule: Q04DX002 (ip), vehicle: Klucel (hydroxypropylcellulose) (HPC) 96 % of control | [10] 96 % of control | dose: 400.0 mg/kg/injection, schedule: Q04DX002 (ip), vehicle: Klucel (hydroxypropylcellulose) (HPC) 111 % of control

[NH-]C(CC(N)=O)C(=O)O.[NH-]C(CC(N)=O)C(=O)O.[Zn+2] (centres undefined)
inactive: dose: 25.0 mg/kg/injection, schedule: Q04DX002 (ip), vehicle: saline 92 % of control | dose: 50.0 mg/kg/injection, schedule: Q04DX002 (ip), vehicle: saline 116 % of control

NC(=O)c1ccccc1OC(=O)Nc1cc([N+](=O)[O-])ccc1F
inactive: dose: 25.0 mg/kg/injection, schedule: Q01DX009 (ip), vehicle: Klucel (hydroxypropylcellulose) (HPC) 104 % of control | dose: 50.0 mg/kg/injection, schedule: Q01DX009 (ip), vehicle: Klucel (hydroxypropylcellulose) (HPC) 107 % of control | [3] 94 % of control and 92 % of control

Cc1cc(C)c(CC(=N)c2ccccc2)c(C)c1
inactive: dose: 100.0 mg/kg/injection, schedule: Q01DX001 (ip), vehicle: acetone 96 % of control | dose: 200.0 mg/kg/injection, schedule: Q01DX001 (ip), vehicle: acetone 94 % of control | dose: 400.0 mg/kg/injection, schedule: Q01DX001 (ip), vehicle: acetone 88 % of control

COC(=O)c1ccccc1NC(=S)NC(=O)/C=C/c1ccccc1
inactive: [3] 94 % of control | [4] 97 % of control | [5] 103 % of control | [6] 95 % of control | [11] 106 % of control | [7] 91 % of control

Clc1cc(Cl)c2c(c1)Cc1cc(Cl)cc(Cl)c1-2
inactive: [3] 94 % of control | [4] 92 % of control | [5] 91 % of control | [6] 89 % of control | [11] 87 % of control | [7] 102 % of control

Cc1ccc(N=C2N(c3ccccc3)N(c3ccccc3)C2(c2ccccc2)c2ccccc2)cc1
inactive: dose: 100.0 mg/kg/injection, schedule: Q01DX001 (ip), vehicle: carboxymethylcellulose (CMC) 92 % of control | dose: 200.0 mg/kg/injection, schedule: Q01DX001 (ip), vehicle: carboxymethylcellulose (CMC) 88 % of control | dose: 400.0 mg/kg/injection, schedule: Q01DX001 (ip), vehicle: carboxymethylcellulose (CMC) 88 % of control

CC(=O)NC(CO)C(O)C(O)C(O)CO (centres undefined)
inactive: dose: 100.0 mg/kg/injection, schedule: Q04DX002 (ip), vehicle: saline 101 % of control and 89 % of control | dose: 200.0 mg/kg/injection, schedule: Q04DX002 (ip), vehicle: saline 93 % of control and 104 % of control | dose: 400.0 mg/kg/injection, schedule: Q04DX002 (ip), vehicle: saline 93 % of control | dose: 800.0 mg/kg/injection, schedule: Q04DX002 (ip), vehicle: saline 93 % of control

CN(C)c1ccc(O)c2c1CC1CC3C(N(C)C)C(=O)C(C(N)=O)=C(O)C3(O)C(=O)C1=C2O (centres undefined)
inactive: dose: 100.0 mg/kg/injection, schedule: Q04DX003 (ip), vehicle: saline with Tween-80 100 % of control | dose: 200.0 mg/kg/injection, schedule: Q04DX003 (ip), vehicle: saline with Tween-80 108 % of control

CC(C)(C)C1(C)CC1(Br)Br (centres undefined)
inactive: dose: 50.0 mg/kg/injection, schedule: Q01DX009 (ip), vehicle: saline 98 % of control | [8] 101 % of control | dose: 200.0 mg/kg/injection, schedule: Q01DX009 (ip), vehicle: saline 98 % of control

OCCCOc1ccccc1
inactive: dose: 100.0 mg/kg/injection, schedule: Q01DX001 (ip), vehicle: saline with Tween-80 103 % of control | dose: 200.0 mg/kg/injection, schedule: Q01DX001 (ip), vehicle: saline with Tween-80 97 % of control | dose: 400.0 mg/kg/injection, schedule: Q01DX001 (ip), vehicle: saline with Tween-80 100 % of control

CC1(C)C2CCC1(C(=O)O)C(=O)C2 (centres undefined)
inactive: [1] 96 % of control | [2] 95 % of control

O=C1C2CCCC3CCCC(C(=O)N1O)C32 (centres undefined)
inactive: [9] 104 % of control | [10] 99 % of control | dose: 400.0 mg/kg/injection, schedule: Q04DX002 (ip), vehicle: saline with Tween-80 86 % of control

CCN(CC)CCNc1ccc(N=Nc2cnc3ccccc3c2)c2ccccc12
inactive: dose: 1.12 mg/kg/injection, schedule: Q01DX009 (ip), vehicle: other 98 % of control | dose: 2.25 mg/kg/injection, schedule: Q01DX009 (ip), vehicle: other 92 % of control | dose: 4.5 mg/kg/injection, schedule: Q01DX009 (ip), vehicle: other 93 % of control | dose: 9.0 mg/kg/injection, schedule: Q01DX009 (ip), vehicle: other 97 % of control | dose: 100.0 mg/kg/injection, schedule: Q01DX001 (ip), vehicle: other 91 % of control | dose: 200.0 mg/kg/injection, schedule: Q01DX001 (ip), vehicle: other 91 % of control | dose: 400.0 mg/kg/injection, schedule: Q01DX001 (ip), vehicle: other 97 % of control

C=CCCCCCCCCO
inactive: dose: 50.0 mg/kg/injection, schedule: Q01DX001 (ip), vehicle: saline 98 % of control | dose: 100.0 mg/kg/injection, schedule: Q01DX001 (ip), vehicle: saline 95 % of control | dose: 200.0 mg/kg/injection, schedule: Q01DX001 (ip), vehicle: saline 95 % of control
